Bridge positions count the residues as written; N and C are the ends. Square brackets hold non-standard residues; d marks the D form. Peptide text beside a SMILES is read from it. Dab = NCC[C@H](N)C(=O)O
What was measured:
[1] = system: Klebsiella pneumoniae (Kp) MDR and clinical isolates; assay: Susceptibility testing (MIC, CLSI M7-A10) of antibiotics with SPR741; format: cell-based; details: for order of potentiation of the antibiotics by SPR741: 25 Kp isolates, Mueller-Hinton broth-II with 0, 2 or 8 μg/mL SPR741
Description: (§1) Assays were performed against 25 Escherichia coli (Ec), 25 Klebsiella pneumoniae (Kp), and 17 Acinetobacter baumannii (Ab) MDR and clinical isolates, in Mueller-Hinton broth-II (cation adjusted) containing 0, 2 or 8 μg/mL SPR741. The minimum inhibitory concentration (MIC) was defined as the lowest concentration of antibiotic required to inhibit visible bacterial growth. MIC values were determined for each antibiotic/SPR741 combination and maximum reductions in MIC of the antibiotic in the combination were determined.

[2] = system: Escherichia coli (Ec) MDR and clinical isolates; assay: as above; format: cell-based; details: for order of potentiation of the antibiotics by SPR741: 25 Ec isolates, Mueller-Hinton broth-II with 0, 2 or 8 μg/mL SPR741
Description: as §1

[3] = system: Acinetobacter baumannii (Ab) MDR and clinical isolates; assay: as above; format: cell-based; details: for order of potentiation of the antibiotics by SPR741: 17 Ab isolates, Mueller-Hinton broth-II with 0, 2 or 8 μg/mL SPR741
Description: as §1

Gram negative bacteria = details: previously shown; cited from earlier work
[4] = system: Ec BW25113, ΔtolC and ΔacrA; assay: Contribution of efflux pump AcrAB-TolC to susceptibility to the combinations; format: cell-based, Escherichia coli
Description: (§2) Efficacy was assessed in checkerboard assays. The minimum inhibitory concentration (MIC) of SPR741, antibiotics, and combinations thereof was defined as the lowest concentration that inhibited growth of Ec ATCC 25922, Ab NCTC 12156 and Kp ATCC 43816. Ec BW25113, ΔtolC and ΔacrA were used to assess the contribution of the multi drug efflux pump AcrAB-TolC to susceptibility to the combinations. Interactions were assessed by calculating fractional inhibitory concentration indices (FICI) for each combination in which the MIC differed from compounds in isolation. Interactions were defined as: FICI>4, antagonism; 0.5-4, no interaction; <0.5, synergy. The minimum bactericidal concentration of combinations in the presence of 5% surfactant (Survanta) was also determined.

[5] = Minimum bactericidal concentration of combinations in the presence of 5% surfactant (Survanta); format: cell-based; details: in combination with SPR741; with or without 5% Survanta
Description: as §2

[6] = Kp isolates, in combination with SPR741

Row | SMILES | order of potentiation of the antibiotics by SPR741 [1] | order of potentiation of the antibiotics by SPR741 [2] | order of potentiation of the antibiotics by SPR741 [3] | further results
1 | C/C(=C\C(=O)OCCCCCCCCC(=O)O)C[C@@H]1OC[C@H](C[C@@H]2O[C@H]2[C@@H](C)[C@H](C)O)[C@@H](O)[C@H]1O [MUP, mupirocin] | RET>RIF=AZ=CLR>MUP>MEM=FA>AZT | RIF>MUP=FA>AZ=RET>AZT>MEM=CLR | FA>RIF>CLR>RET>MEM>AZ>AZT>MUP | 
2 | CO[C@H]1/C=C/O[C@@]2(C)Oc3c(C)c(O)c4c(O)c(c(/C=N/N5CCN(C)CC5)c(O)c4c3C2=O)NC(=O)/C(C)=C\C=C\[C@H](C)[C@H](O)[C@@H](C)[C@@H](O)[C@@H](C)[C@H](OC(C)=O)[C@@H]1C [RIF, rifampicin] |  |  |  | maximum MIC reduction ([2]; Ec isolates, in combination with SPR741): > 2000 fold; MIC of antibiotic alone ([2]; Ec isolates, without SPR741): > 128 µg/mL
3 | CC(=O)O[C@H]1C[C@@]2(C)[C@@H](C[C@@H](O)[C@H]3[C@@]4(C)CC[C@@H](O)[C@@H](C)[C@@H]4CC[C@@]32C)/C1=C(\CCC=C(C)C)C(=O)O [FA, fusidic acid] | RET>RIF=AZ=CLR>MUP>MEM=FA>AZT | RIF>MUP=FA>AZ=RET>AZT>MEM=CLR | FA>RIF>CLR>RET>MEM>AZ>AZT>MUP | 
4 | C[C@@H](O)[C@H]1C(=O)N2C(C(=O)O)=C(S[C@@H]3CN[C@H](C(=O)N(C)C)C3)[C@H](C)[C@H]12 [MEM, meropenem] | RET>RIF=AZ=CLR>MUP>MEM=FA>AZT | RIF>MUP=FA>AZ=RET>AZT>MEM=CLR | FA>RIF>CLR>RET>MEM>AZ>AZT>MUP | 
5 | CC(=O)N[C@H](C(=O)N[C@H](CO)C(=O)N[C@H]1CCNC(=O)[C@H]([C@@H](C)O)NC(=O)[C@H](CCN)NC(=O)[C@H](CCN)NC(=O)[C@H](CC(C)C)NC(=O)[C@@H](Cc2ccccc2)NC(=O)[C@H](CCN)NC1=O)[C@@H](C)O [SPR741, Acetyl-Thr-dSer-cy[Dab-Dab-dPhe-Leu-Dab-Dab-Thr]] (Ac-T[dS][Dab][Dab][dF]L[Dab][Dab]T; lactam 3-C) |  |  |  | sensitisation of bacteria to antibiotics (Gram negative bacteria): increase the sensitivity of certain bacteria to Mupirocin, Azithromycin, Fusidic Acid, and Vancomycin; potentiation of antibiotics that are AcrAB-TolC substrates [4]: able to potentiate antibiotics that are substrates of AcrAB-TolC; effect of SPR741 on MIC of antibiotics ([1]; MDR isolates of Kp): effectively reduced the MIC of currently utilized antibiotics; effect of SPR741 on MIC of antibiotics ([2]; MDR isolates of Ec): effectively reduced the MIC of currently utilized antibiotics; effect of SPR741 on MIC of antibiotics ([3]; MDR isolates of Ab): effectively reduced the MIC of currently utilized antibiotics
6 | C[C@H]1[C@H](NC(=O)/C(=N\OC(C)(C)C(=O)O)c2csc(N)n2)C(=O)N1S(=O)(=O)O [AZT, aztreonam] |  | RIF>MUP=FA>AZ=RET>AZT>MEM=CLR | FA>RIF>CLR>RET>MEM>AZ>AZT>MUP | 
7 | C=C[C@]1(C)C[C@@H](OC(=O)CS[C@@H]2C[C@H]3CC[C@@H](C2)N3C)[C@]2(C)[C@H](C)CC[C@]3(CCC(=O)[C@H]32)[C@@H](C)[C@@H]1O [RET, retapamulin] | RET>RIF=AZ=CLR>MUP>MEM=FA>AZT | RIF>MUP=FA>AZ=RET>AZT>MEM=CLR | FA>RIF>CLR>RET>MEM>AZ>AZT>MUP | MIC of antibiotic in the combination [1, 6]: 4 µg/mL; MIC reduction [1, 6]: 32 fold; MIC of antibiotic alone ([1]; Kp isolates, without SPR741): 128 µg/mL
8 | CC[C@H]1OC(=O)[C@H](C)[C@@H](O[C@H]2C[C@@](C)(OC)[C@@H](O)[C@H](C)O2)[C@H](C)[C@@H](O[C@@H]2O[C@H](C)C[C@H](N(C)C)[C@H]2O)[C@](C)(OC)C[C@@H](C)C(=O)[C@H](C)[C@@H](O)[C@]1(C)O [CLR, clarithromycin] | RET>RIF=AZ=CLR>MUP>MEM=FA>AZT | RIF>MUP=FA>AZ=RET>AZT>MEM=CLR | FA>RIF>CLR>RET>MEM>AZ>AZT>MUP | bactericidal activity (minimum bactericidal concentration) of the combination [5]: bactericidal at concentrations similar to the MIC irrespective of the presence of Survanta
9 | CC[C@H]1OC(=O)[C@H](C)[C@@H](O[C@H]2C[C@@](C)(OC)[C@@H](O)[C@H](C)O2)[C@H](C)[C@@H](O[C@@H]2O[C@H](C)C[C@H](N(C)C)[C@H]2O)[C@](C)(O)C[C@@H](C)CN(C)[C@H](C)[C@@H](O)[C@]1(C)O [AZ, azithromycin] | RET>RIF=AZ=CLR>MUP>MEM=FA>AZT | RIF>MUP=FA>AZ=RET>AZT>MEM=CLR | FA>RIF>CLR>RET>MEM>AZ>AZT>MUP | 

— patent publication US20190209645A1, “POTENTIATION OF ANTIBIOTIC ACTIVITY BY A NOVEL CATIONIC PEPTIDE, SPR741” (priority 2016, published 2019)
